Measured values reported in patent US12590091B2, “1H-pyrrolo[3,2-C]pyridine and 1H-pyrrolo[2,3-C]pyridine derivatives as TLR9 inhibitors for the treatment of fibrosis” (BRISTOL-MYERS SQUIBB COMPANY, priority 2020, dated 2026).

Molecular target: T1, human TLR8 (Homo sapiens, UniProt Q9NR97)
T1 construct: host or cells: HEK-Blue cells
T1 sequence (Q9NR97 27-1041): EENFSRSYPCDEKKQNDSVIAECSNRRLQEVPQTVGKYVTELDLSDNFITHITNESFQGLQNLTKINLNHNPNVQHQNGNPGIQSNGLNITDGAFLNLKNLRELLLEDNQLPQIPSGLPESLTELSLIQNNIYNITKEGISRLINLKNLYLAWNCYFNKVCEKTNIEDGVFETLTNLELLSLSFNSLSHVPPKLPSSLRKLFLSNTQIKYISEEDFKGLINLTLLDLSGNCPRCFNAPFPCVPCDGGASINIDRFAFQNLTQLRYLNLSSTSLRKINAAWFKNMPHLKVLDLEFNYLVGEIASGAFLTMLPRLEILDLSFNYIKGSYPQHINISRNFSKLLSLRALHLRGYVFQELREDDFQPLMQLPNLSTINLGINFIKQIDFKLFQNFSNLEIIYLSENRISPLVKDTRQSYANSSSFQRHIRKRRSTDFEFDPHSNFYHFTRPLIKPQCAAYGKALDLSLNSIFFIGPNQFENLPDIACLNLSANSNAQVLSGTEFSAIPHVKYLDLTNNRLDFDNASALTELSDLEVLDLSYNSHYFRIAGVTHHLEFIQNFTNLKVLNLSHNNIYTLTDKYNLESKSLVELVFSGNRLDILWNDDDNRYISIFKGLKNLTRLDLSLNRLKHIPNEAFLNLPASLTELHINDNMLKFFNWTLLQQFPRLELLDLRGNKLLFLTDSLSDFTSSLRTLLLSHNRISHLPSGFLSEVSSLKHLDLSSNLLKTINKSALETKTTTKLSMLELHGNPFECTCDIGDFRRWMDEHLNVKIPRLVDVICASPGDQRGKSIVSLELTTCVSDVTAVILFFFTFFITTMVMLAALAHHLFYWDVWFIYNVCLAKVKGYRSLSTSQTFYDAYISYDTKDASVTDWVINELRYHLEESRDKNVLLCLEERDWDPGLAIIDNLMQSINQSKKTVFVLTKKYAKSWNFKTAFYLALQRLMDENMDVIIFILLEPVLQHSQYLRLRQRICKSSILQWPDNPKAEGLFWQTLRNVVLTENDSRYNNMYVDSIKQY
Experiment: TLR8 inhibition reporter assay (HEK-Blue cells, SEAP reporter)
Assay type: cell-based
Conditions: HEK-Blue cells overexpressing human TLR8, stimulated with R848 15.9 μM, 22 hour incubation
Method in brief: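 Compound treatment: 30 min, RT, 0.05 nM–50 μM final. Agonist: TLR7 gardiquimod 7.5 μM; TLR8 R848 15.9 μM; TLR9 ODN2006 5 nM. Incubation 22 h, 37 °C, 5% CO2. Readout SEAP, HEK-Blue Detection.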

Row | SMILES | IC50 [µM]
1 | COc1ccc(-c2c(C)n(C)c3cnc(C4CCN(C5CCN(C(=O)c6ccccc6)CC5)CC4)cc23)cc1OC [Example 19, (4-(3-(3,4-dimethoxyphenyl)-1,2-dimethyl-1H-pyrrolo[2,3-c]pyridin-5-yl)-[1,4′-bipiperidin]-1′-yl)(phenyl)methanone] | > 50
2 | COc1ccc(-c2c(C)n(C)c3cnc(-c4ccc(N5CCN(C(C)C)CC5)cc4)cc23)cc1OC [Example 32, 3-(3,4-dimethoxyphenyl)-5-(4-(4-isopropylpiperazin-1-yl)phenyl)-1,2-dimethyl-1H-pyrrolo[2,3-c]pyridine] | > 50
3 | Cc1nc(-c2ccc(N3CCN(C4CCOC4)CC3)cc2)cc2c1cc(-c1ccc(S(C)(=O)=O)cc1)n2C (centres unmarked) [Example 37, 1,4-dimethyl-2-(4-(methylsulfonyl)phenyl)-6-(4-(4-(tetrahydrofuran-3-yl)piperazin-1-yl)phenyl)-1H-pyrrolo[3,2-c]pyridine] | > 25
4 | COc1ccc(-c2c(C)c3cc(C4CCN(C5CCN(CC(C)C)CC5)CC4)ncc3n2C)cc1OC [Example 13, 2-(3,4-dimethoxyphenyl)-5-(1′-isobutyl-[1,4′-bipiperidin]-4-yl)-1,3-dimethyl-1H-pyrrolo[2,3-c]pyridine] | > 50
5 | COCCN1C2CCC1CN(c1ccc(-c3cc4c(cc(-c5ccc(S(C)(=O)=O)cc5)n4C)c(C)n3)cc1F)C2 [Example 75, 6-(3-fluoro-4-(8-(2-methoxyethyl)-3,8-diazabicyclo[3.2.1]octan-3-yl)phenyl)-1,4-dimethyl-2-(4-(methylsulfonyl)phenyl)-1H-pyrrolo[3,2-c]pyridine] | 9.6
6 | Cc1nc(-c2ccc(N3CCN(C4CCOCC4)CC3)cc2)cc2c1cc(-c1ccc(S(C)(=O)=O)cc1)n2C [Example 35, 1,4-dimethyl-2-(4-(methylsulfonyl)phenyl)-6-(4-(4-(tetrahydro-2H-pyran-4-yl)piperazin-1-yl)phenyl)-1H-pyrrolo[3,2-c]pyridine] | > 25
7 | Cc1nc(-c2ccc(C3(O)CCN(C(C)C)CC3)c(F)c2)cc2c1cc(-c1ccc(S(C)(=O)=O)cc1)n2C [Example 107, 4-(4-(1,4-dimethyl-2-(4-(methylsulfonyl)phenyl)-1H-pyrrolo[3,2-c]pyridin-6-yl)-2-fluorophenyl)-1-isopropylpiperidin-4-ol] | 2.7
8 | COc1ccc(-c2c(C)[nH]c3cnc(-c4ccc(N5CCN(C(C)C)CC5)cc4)cc23)cc1OC [Example 2, 3-(3,4-dimethoxyphenyl)-5-(4-(4-isopropylpiperazin-1-yl)phenyl)-2-methyl-1H-pyrrolo[2,3-c]pyridine] | 29
9 | Cc1nc(-c2ccc(N3CCN(CCO)CC3)c(F)c2)cc2c1cc(-c1ccc(S(C)(=O)=O)cc1)n2C [Example 69, 2-(4-(4-(1,4-dimethyl-2-(4-(methylsulfonyl)phenyl)-1H-pyrrolo[3,2-c]pyridin-6-yl)-2-fluorophenyl)piperazin-1-yl)ethan-1-ol] | > 25
10 | CC(C)N1CCN(Cc2ccc(-c3cc4c(cc(-c5ccc(S(C)(=O)=O)cc5)n4C)c(C(C)(C)O)n3)cc2)CC1 [Example 125, 2-(6-(4-((4-isopropylpiperazin-1-yl)methyl)phenyl)-1-methyl-2-(4-(methylsulfonyl)phenyl)-1H-pyrrolo[3,2-c]pyridin-4-yl)propan-2-ol] | 11.3
11 | Cc1nc(-c2ccc(C3(O)CCN(C(C)(C)C)CC3)cc2F)cc2c1cc(-c1ccc(S(C)(=O)=O)cc1)n2C [Example 108, 1-(tert-butyl)-4-(4-(1,4-dimethyl-2-(4-(methylsulfonyl)phenyl)-1H-pyrrolo[3,2-c]pyridin-6-yl)-3-fluorophenyl)piperidin-4-ol] | 1.5
